{"source": "PubChem BioAssay AID1963425", "about": "(Molecular Pharmacology Branch, DTP, NCI, 2024);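 further: compound exposure lasted 7 days starting three days after spheroid seeding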;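 on viability, T/C: 100% = DMSO vehicle control wells with viability set relative to vehicle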", "test_system": "323965-272-R-J2-PDC complex spheroid growth, % test/control", "assay": "Anticancer human tumor 323965-272-R-J2-PDC patient-derived pancreatic carcinoma cell line growth inhibition [Asc]", "conditions": "for IC50: curve of first compound; for viability, T/C: stronger effect = lower value", "procedure,_shortened": "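Spheroid model: tumor line + HUVEC + hMSC. Single agents and combinations; top conc. at/near clinical Cmax (10 microM if undetermined), half-log dilutions. DMSO stocks at 800-fold test concentration.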"}
{"smiles": "CNC(C)C(=O)NC1CN(S(=O)(=O)c2cccc(S(=O)(=O)N3CCC4CCC(C(=O)NC(c5ccccc5)c5ccccc5)N4C(=O)C(NC(=O)C(C)NC)C3)c2)CCC2CCC(C(=O)NC(c3ccccc3)c3ccccc3)N2C1=O", "note": "(centres undefined) + Cc1c(S(C)(=O)=O)c(-c2cc(F)cc(N3CCN(c4ccc(NS(=O)(=O)c5ccc(NC(CCN6CCC(C(=O)OCCCP(=O)(O)O)CC6)CSc6ccccc6)c(S(=O)(=O)C(F)(F)F)c5)cc4)CC3)c2)c(-c2ccc(Cl)cc2)n1C(C)C", "values": [{"measurement": "IC50", "setting": "second compound 0.0316 µM", "value": "> 1", "unit": "µM"}, {"measurement": "IC50", "setting": "second compound 0.1 µM", "value": "> 1", "unit": "µM"}, {"measurement": "IC50", "setting": "second compound 0.316 µM", "value": 0.878, "unit": "µM"}, {"measurement": "IC50", "setting": "second compound 1 µM", "value": 0.745, "unit": "µM"}, {"measurement": "IC50", "setting": "second compound 3.16 µM", "value": 0.569, "unit": "µM"}, {"measurement": "IC50", "setting": "second compound 10 µM", "value": 0.324, "unit": "µM"}, {"measurement": "viability, T/C", "setting": "second compound 0.0316 µM, first compound 0.00316 µM", "value": 106, "unit": "%"}, {"measurement": "viability, T/C", "setting": "second compound 0.0316 µM, first compound 0.01 µM", "value": 119, "unit": "%"}, {"measurement": "viability, T/C", "setting": "second compound 0.0316 µM, first compound 0.0316 µM", "value": 96.3, "unit": "%"}, {"measurement": "viability, T/C", "setting": "second compound 0.0316 µM, first compound 0.1 µM", "value": 103, "unit": "%"}, {"measurement": "viability, T/C", "setting": "second compound 0.0316 µM, first compound 0.316 µM", "value": 99.3, "unit": "%"}, {"measurement": "viability, T/C", "setting": "second compound 0.0316 µM, first compound 1 µM", "value": 58.4, "unit": "%"}, {"measurement": "viability, T/C", "setting": "second compound 0.1 µM, first compound 0.00316 µM", "value": 107, "unit": "%"}, {"measurement": "viability, T/C", "setting": "second compound 0.1 µM, first compound 0.01 µM", "value": 96.6, "unit": "%"}, {"measurement": "viability, T/C", "setting": "second compound 0.1 µM, first compound 0.0316 µM", "value": 98.2, "unit": "%"}, {"measurement": "viability, T/C", "setting": "second compound 0.1 µM, first compound 0.1 µM", "value": 107, "unit": "%"}, {"measurement": "viability, T/C", "setting": "second compound 0.1 µM, first compound 0.316 µM", "value": 93, "unit": "%"}, {"measurement": "viability, T/C", "setting": "second compound 0.1 µM, first compound 1 µM", "value": 54.1, "unit": "%"}, {"measurement": "viability, T/C", "setting": "second compound 0.316 µM, first compound 0.00316 µM", "value": 96.9, "unit": "%"}, {"measurement": "viability, T/C", "setting": "second compound 0.316 µM, first compound 0.01 µM", "value": 90.1, "unit": "%"}, {"measurement": "viability, T/C", "setting": "second compound 0.316 µM, first compound 0.0316 µM", "value": 90.8, "unit": "%"}, {"measurement": "viability, T/C", "setting": "second compound 0.316 µM, first compound 0.1 µM", "value": 86.1, "unit": "%"}, {"measurement": "viability, T/C", "setting": "second compound 0.316 µM, first compound 0.316 µM", "value": 93.4, "unit": "%"}, {"measurement": "viability, T/C", "setting": "second compound 0.316 µM, first compound 1 µM", "value": 44.7, "unit": "%"}, {"measurement": "viability, T/C", "setting": "second compound 1 µM, first compound 0.00316 µM", "value": 90.2, "unit": "%"}, {"measurement": "viability, T/C", "setting": "second compound 1 µM, first compound 0.01 µM", "value": 85.7, "unit": "%"}, {"measurement": "viability, T/C", "setting": "second compound 1 µM, first compound 0.0316 µM", "value": 85.7, "unit": "%"}, {"measurement": "viability, T/C", "setting": "second compound 1 µM, first compound 0.1 µM", "value": 76.7, "unit": "%"}, {"measurement": "viability, T/C", "setting": "second compound 1 µM, first compound 0.316 µM", "value": 83, "unit": "%"}, {"measurement": "viability, T/C", "setting": "second compound 1 µM, first compound 1 µM", "value": 38.8, "unit": "%"}, {"measurement": "viability, T/C", "setting": "second compound 3.16 µM, first compound 0.00316 µM", "value": 79.8, "unit": "%"}, {"measurement": "viability, T/C", "setting": "second compound 3.16 µM, first compound 0.01 µM", "value": 70.9, "unit": "%"}, {"measurement": "viability, T/C", "setting": "second compound 3.16 µM, first compound 0.0316 µM", "value": 64, "unit": "%"}, {"measurement": "viability, T/C", "setting": "second compound 3.16 µM, first compound 0.1 µM", "value": 75.8, "unit": "%"}, {"measurement": "viability, T/C", "setting": "second compound 3.16 µM, first compound 0.316 µM", "value": 72, "unit": "%"}, {"measurement": "viability, T/C", "setting": "second compound 3.16 µM, first compound 1 µM", "value": 29, "unit": "%"}, {"measurement": "viability, T/C", "setting": "second compound 10 µM, first compound 0.00316 µM", "value": 77.4, "unit": "%"}, {"measurement": "viability, T/C", "setting": "second compound 10 µM, first compound 0.01 µM", "value": 80.1, "unit": "%"}, {"measurement": "viability, T/C", "setting": "second compound 10 µM, first compound 0.0316 µM", "value": 65.8, "unit": "%"}, {"measurement": "viability, T/C", "setting": "second compound 10 µM, first compound 0.1 µM", "value": 59.8, "unit": "%"}, {"measurement": "viability, T/C", "setting": "second compound 10 µM, first compound 0.316 µM", "value": 57, "unit": "%"}, {"measurement": "viability, T/C", "setting": "second compound 10 µM, first compound 1 µM", "value": 22.6, "unit": "%"}]}
{"smiles": "C=C(F)C(=O)N1CCN(c2nc(OCC3CCCN3C)nc3c2CCN(c2cccc4cccc(Cl)c24)C3)CC1CC#N", "note": "(centres undefined) + CCN1C(C(=O)NC23CCC(C(=O)O)(CC2)CC3)C(c2cccc(Cl)c2F)C2(C(=O)Nc3cc(Cl)ccc32)C12CCCCC2", "values": [{"measurement": "IC50", "setting": "second compound 0.00949 µM", "value": "> 10", "unit": "µM"}, {"measurement": "IC50", "setting": "second compound 0.03 µM", "value": 5.59, "unit": "µM"}, {"measurement": "IC50", "setting": "second compound 0.0949 µM", "value": 5.62, "unit": "µM"}, {"measurement": "IC50", "setting": "second compound 0.3 µM", "value": 5.79, "unit": "µM"}, {"measurement": "IC50", "setting": "second compound 0.949 µM", "value": 5.21, "unit": "µM"}, {"measurement": "IC50", "setting": "second compound 3 µM", "value": 4.67, "unit": "µM"}, {"measurement": "viability, T/C", "setting": "second compound 0.00949 µM, first compound 0.0316 µM", "value": 62.2, "unit": "%"}, {"measurement": "viability, T/C", "setting": "second compound 0.00949 µM, first compound 0.1 µM", "value": 64, "unit": "%"}, {"measurement": "viability, T/C", "setting": "second compound 0.00949 µM, first compound 0.316 µM", "value": 61.5, "unit": "%"}, {"measurement": "viability, T/C", "setting": "second compound 0.00949 µM, first compound 1 µM", "value": 58.6, "unit": "%"}, {"measurement": "viability, T/C", "setting": "second compound 0.00949 µM, first compound 3.16 µM", "value": 85.7, "unit": "%"}, {"measurement": "viability, T/C", "setting": "second compound 0.00949 µM, first compound 10 µM", "value": 32.8, "unit": "%"}, {"measurement": "viability, T/C", "setting": "second compound 0.03 µM, first compound 0.0316 µM", "value": 79, "unit": "%"}, {"measurement": "viability, T/C", "setting": "second compound 0.03 µM, first compound 0.1 µM", "value": 65.3, "unit": "%"}, {"measurement": "viability, T/C", "setting": "second compound 0.03 µM, first compound 0.316 µM", "value": 59.7, "unit": "%"}, {"measurement": "viability, T/C", "setting": "second compound 0.03 µM, first compound 1 µM", "value": 61.2, "unit": "%"}, {"measurement": "viability, T/C", "setting": "second compound 0.03 µM, first compound 3.16 µM", "value": 81.8, "unit": "%"}, {"measurement": "viability, T/C", "setting": "second compound 0.03 µM, first compound 10 µM", "value": 30.2, "unit": "%"}, {"measurement": "viability, T/C", "setting": "second compound 0.0949 µM, first compound 0.0316 µM", "value": 73.4, "unit": "%"}, {"measurement": "viability, T/C", "setting": "second compound 0.0949 µM, first compound 0.1 µM", "value": 60, "unit": "%"}, {"measurement": "viability, T/C", "setting": "second compound 0.0949 µM, first compound 0.316 µM", "value": 60.5, "unit": "%"}, {"measurement": "viability, T/C", "setting": "second compound 0.0949 µM, first compound 1 µM", "value": 63.7, "unit": "%"}, {"measurement": "viability, T/C", "setting": "second compound 0.0949 µM, first compound 3.16 µM", "value": 74.3, "unit": "%"}, {"measurement": "viability, T/C", "setting": "second compound 0.0949 µM, first compound 10 µM", "value": 33.5, "unit": "%"}, {"measurement": "viability, T/C", "setting": "second compound 0.3 µM, first compound 0.0316 µM", "value": 81.1, "unit": "%"}, {"measurement": "viability, T/C", "setting": "second compound 0.3 µM, first compound 0.1 µM", "value": 64.4, "unit": "%"}, {"measurement": "viability, T/C", "setting": "second compound 0.3 µM, first compound 0.316 µM", "value": 65, "unit": "%"}, {"measurement": "viability, T/C", "setting": "second compound 0.3 µM, first compound 1 µM", "value": 66.3, "unit": "%"}, {"measurement": "viability, T/C", "setting": "second compound 0.3 µM, first compound 3.16 µM", "value": 74.8, "unit": "%"}, {"measurement": "viability, T/C", "setting": "second compound 0.3 µM, first compound 10 µM", "value": 31.8, "unit": "%"}, {"measurement": "viability, T/C", "setting": "second compound 0.949 µM, first compound 0.0316 µM", "value": 73.4, "unit": "%"}, {"measurement": "viability, T/C", "setting": "second compound 0.949 µM, first compound 0.1 µM", "value": 65.9, "unit": "%"}, {"measurement": "viability, T/C", "setting": "second compound 0.949 µM, first compound 0.316 µM", "value": 63.8, "unit": "%"}, {"measurement": "viability, T/C", "setting": "second compound 0.949 µM, first compound 1 µM", "value": 62.7, "unit": "%"}, {"measurement": "viability, T/C", "setting": "second compound 0.949 µM, first compound 3.16 µM", "value": 83.8, "unit": "%"}, {"measurement": "viability, T/C", "setting": "second compound 0.949 µM, first compound 10 µM", "value": 24.1, "unit": "%"}, {"measurement": "viability, T/C", "setting": "second compound 3 µM, first compound 0.0316 µM", "value": 70.7, "unit": "%"}, {"measurement": "viability, T/C", "setting": "second compound 3 µM, first compound 0.1 µM", "value": 57, "unit": "%"}, {"measurement": "viability, T/C", "setting": "second compound 3 µM, first compound 0.316 µM", "value": 61, "unit": "%"}, {"measurement": "viability, T/C", "setting": "second compound 3 µM, first compound 1 µM", "value": 71.9, "unit": "%"}, {"measurement": "viability, T/C", "setting": "second compound 3 µM, first compound 3.16 µM", "value": 82.3, "unit": "%"}, {"measurement": "viability, T/C", "setting": "second compound 3 µM, first compound 10 µM", "value": 13.8, "unit": "%"}]}
